Assays:
[1] = biological target: T1, recombinant human Wee1A kinase (Homo sapiens, UniProt P30291); assay: Wee1A kinase binding assay (LanthaScreen Eu time-resolved FRET); settings: 30 nM tracer 178, 5 nM Wee1A kinase, 2 nM Eu-labeled antibody; 60 minutes at room temperature; read-out: Wee1A kinase Binding IC50
T1 construct: full length Wee1 kinase was expressed by baculovirus in insect cells; purchased Invitrogen PV3817; host or cells: insect cells (baculovirus)
How it was run: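 Full-length, baculovirus-expressed GST-tagged Wee1A (5 nM) was mixed with 2 nM Eu-anti-GST antibody, 30 nM kinase tracer 178 and compound (1% DMSO). Buffer was 50 mM HEPES pH 7.5, 10 mM MgCl2, 1 mM EGTA, 0.01% Brij-35, incubated 60 min at room temperature. TR-FRET 665/615 nm emission ratios from duplicates were curve-fitted.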

[2] = biological target: T2, Myt1 kinase (recombinant PMYT-1) (Homo sapiens, UniProt Q99640); assay: Myt1 kinase binding assay (LanthaScreen Eu Kinase Binding Assay); settings: 3 nM tracer 178, 2.5 nM PMYT-1, 1 nM Eu-labeled antibody; read-out: Myt1 kinase Binding IC50
T2 construct: full length PMYT-1 was expressed by baculovirus in insect cells; purchased Invitrogen A30984; host or cells: insect cells (baculovirus)
T2 sequence (Q99640 1-499): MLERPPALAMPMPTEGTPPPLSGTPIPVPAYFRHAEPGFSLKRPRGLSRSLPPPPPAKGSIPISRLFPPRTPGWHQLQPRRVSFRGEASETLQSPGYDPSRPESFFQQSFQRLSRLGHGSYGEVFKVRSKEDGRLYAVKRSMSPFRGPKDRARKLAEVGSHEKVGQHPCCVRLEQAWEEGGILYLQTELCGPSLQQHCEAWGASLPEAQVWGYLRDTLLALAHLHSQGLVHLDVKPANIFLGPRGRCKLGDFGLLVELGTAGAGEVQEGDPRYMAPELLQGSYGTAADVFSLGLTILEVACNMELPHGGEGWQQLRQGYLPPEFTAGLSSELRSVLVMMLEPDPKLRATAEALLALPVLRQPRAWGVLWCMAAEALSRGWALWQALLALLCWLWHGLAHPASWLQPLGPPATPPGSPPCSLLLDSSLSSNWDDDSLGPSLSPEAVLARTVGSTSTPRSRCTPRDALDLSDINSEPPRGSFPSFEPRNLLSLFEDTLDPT
How it was run: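 Compound binding to Myt1 kinase was assessed using the LanthaScreen Eu Kinase Binding Assay. This europium-based binding format was applied to quantify how strongly each compound bound to the Myt1 enzyme, and the binding affinity was reported for each compound as an IC50 value.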

[3] = biological target: T3, Wee1A kinase (CDK1 Tyr15 phosphorylation in ACHN renal cell carcinoma cells) (Homo sapiens, UniProt P30291); assay: High-content imaging of pCdk1 Y15, Wee1A kinase target engagement in ACHN cells; assay type: cell-based; settings: 4 h treatment, nuclear positivity for pCdk1 Y15 vs DMSO control, read-out: CDK1 Tyr15 Phosphorylation EC50
T3 construct: pCDK1 Tyr15 immunofluorescence read-out
How it was run: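 EC50 values come from the per-well fraction of cells with nuclear pCdk1 Y15 staining, normalised to DMSO control, by automated immunofluorescence imaging. Cells were ACHN renal carcinoma, treated 4 h with compound at 7–5,000 nM or 0.3–200 nM.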

ACHN cells = assay: Cell Titer Glo viability assay, ACHN cells; assay type: cell-based; settings: Homo sapiens, 144 h, absolute EC50
How it was run: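 Cells grown in MEM with 10% FCS were seeded at 500 (A427), 400 (ACHN) or 250 (DAOY) per well and treated the next day with compound at 17 to 10 000 nM. Viability relative to untreated control was read at 144 h by CellTiter-Glo 2.0.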

DAOY cells = assay: Cell Titer Glo viability assay, DAOY cells; assay type: cell-based; settings: Homo sapiens, 144 h, absolute EC50
Description: Each of an ACHN renal cell carcinoma cell line (ATCC) and a DAOY medulloblastoma cell line, and an A427 lung cancer line were cultured in Minimum Essential Medium Eagle supplemented with 10% fetal calf serum (Sigma), 1% Penicillin-Streptomycin and 10 mM HEPES buffer (HyClone). Cell cultures were kept in a humidified incubator at 37 °C and 5% CO2. Cells were routinely tested for Mycoplasma contamination.
ACHN cells, DAOY cells, or A427 cells were seeded at a density of 400, 250, or 500 cells per well respectively, in tissue culture treated 384 well plates (Corning Costar). After overnight incubation, cells were treated with drugs at concentrations ranging from 17 to 10 000 nM. Viability compared to untreated control was assessed at 144 h using Cell Titer Glo assay 2.0 (Promega). […] “NT” means the compounds was not tested in the indicated cells.

[4] = biological target: T4, Myt1 kinase (CDK1 Thr14 phosphorylation in DAOY medulloblastoma cells) (Homo sapiens, UniProt Q99640); assay: AlphaLISA assay, Myt1 kinase target engagement (phospho-CDK1 Thr14) in DAOY cells; assay type: cell-based; settings: 4 h treatment, read-out: CDK1 Thr14 Phosphorylation EC50
T4 construct: pCDK1 Thr14 AlphaLISA read-out
T4 sequence (Q99640 1-499): T2 sequence (Q99640 1-499)
How it was run: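 Cells seeded at 10,000 (DAOY) or 20,000 (ACHN) per well, treated 24 h later for 4 h with compound at 7–5000 nM. Lysates analysed by AlphaLISA SureFire Ultra phospho-CDK1 (Thr14) with donor/acceptor beads; EC50 from dose-response curves.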

T1 sequence (P30291 whole entry): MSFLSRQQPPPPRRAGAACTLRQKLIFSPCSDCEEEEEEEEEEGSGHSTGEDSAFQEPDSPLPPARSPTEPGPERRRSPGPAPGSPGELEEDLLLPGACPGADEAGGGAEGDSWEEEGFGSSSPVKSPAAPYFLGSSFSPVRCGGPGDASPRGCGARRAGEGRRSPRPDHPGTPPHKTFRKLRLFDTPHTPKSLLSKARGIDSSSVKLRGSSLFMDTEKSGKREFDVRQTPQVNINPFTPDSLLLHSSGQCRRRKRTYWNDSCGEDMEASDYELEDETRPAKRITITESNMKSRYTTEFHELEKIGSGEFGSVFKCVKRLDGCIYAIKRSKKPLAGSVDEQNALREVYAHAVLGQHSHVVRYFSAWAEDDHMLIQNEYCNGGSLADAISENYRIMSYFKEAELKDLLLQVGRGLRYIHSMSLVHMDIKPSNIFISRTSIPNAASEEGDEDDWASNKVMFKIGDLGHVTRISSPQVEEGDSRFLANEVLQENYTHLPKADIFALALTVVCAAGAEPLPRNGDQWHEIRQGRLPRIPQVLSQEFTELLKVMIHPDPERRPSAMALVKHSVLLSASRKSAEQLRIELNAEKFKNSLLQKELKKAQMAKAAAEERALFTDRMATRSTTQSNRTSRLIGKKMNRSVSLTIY
T3 sequence (P30291 whole entry): as above

Compound	IC50 [1] [nM]	IC50 [2] [nM]	EC50 [3] [nM]	EC50 (ACHN cells) [nM]	EC50 [4] [nM]	EC50 (DAOY cells) [nM]
C=CCn1c(=O)c2cnc(Nc3ccc4cccnc4c3)nc2n1-c1cccc(OC2CCN(C)CC2)n1 [Compound 335, 2-allyl-1-[6-(1-methyl-4-piperidyloxy)-2-pyridyl]-6-(7-quinolylamino)-1,2-dihydro-3H-1,2,5,7-tetraazainden-3-one]	< 10	< 20	< 100	≤ 100	200 to 500	≤ 100
CN1CCC(Oc2cccc(-n3c4nc(Nc5ccc6c(cnn6C)c5)ncc4c(=O)n3C)n2)CC1 [Compound 121, 2-methyl-6-(1-methyl-1H-indazol-5-ylamino)-1-[6-(1-methyl-4-piperidyloxy)-2-pyridyl]-1,2-dihydro-3H-1,2,5,7-tetraazainden-3-one]	< 10	20 to 100	< 100	≤ 100	200 to 500	≤ 100
C=CCn1c(=O)c2cnc(Nc3ccc4oc(C)nc4c3)nc2n1-c1cccc(OC2CCN(C)CC2)n1 [Compound 231, 2-allyl-6-(2-methyl-1,3-benzoxazol-5-ylamino)-1-[6-(1-methyl-4-piperidyloxy)-2-pyridyl]-1,2-dihydro-3H-1,2,5,7-tetraazainden-3-one]	< 10	< 20	< 100	≤ 100	200 to 500	≤ 100
C=CCn1c(=O)c2cnc(Nc3ccc4occc4c3)nc2n1-c1cccc(OC2CCN(C)CC2)n1 [Compound 309, 2-allyl-6-(1-benzofuran-5-ylamino)-1-[6-(1-methyl-4-piperidyloxy)-2-pyridyl]-1,2-dihydro-3H-1,2,5,7-tetraazainden-3-one]	< 10	< 20	< 100	≤ 100	< 200	≤ 100
C=CCn1c(=O)c2cnc(Nc3ccc4scnc4c3)nc2n1-c1cccc(OC2CCN(C)CC2)n1 [Compound 209, 2-allyl-6-(benzo[d]thiazol-5-ylamino)-1-(6-((1-methylpiperidin-4-yl)oxy)pyridin-2-yl)-1,2-dihydro-3H-pyrazolo[3,4-d]pyrimidin-3-one]	< 10	< 20	< 100	≤ 100	< 200	≤ 100
C=CCn1c(=O)c2cnc(Nc3ccc4c(c3)OCO4)nc2n1-c1cccc(OC2CCN(C)CC2)n1 [Compound 307, 2-allyl-6-(2H-1,3-benzodioxol-5-ylamino)-1-[6-(1-methyl-4-piperidyloxy)-2-pyridyl]-1,2-dihydro-3H-1,2,5,7-tetraazainden-3-one]	< 10	20 to 100	< 100	≤ 100	200 to 500	≤ 100
C=CCn1c(=O)c2cnc(Nc3ccc4sncc4c3)nc2n1-c1cccc(OC2CCN(C)CC2)n1 [Compound 320, 2-allyl-6-(1,2-benzisothiazol-5-ylamino)-1-[6-(1-methyl-4-piperidyloxy)-2-pyridyl]-1,2-dihydro-3H-1,2,5,7-tetraazainden-3-one]	< 10	< 20	< 100	≤ 100	200 to 500	≤ 100
C=CCn1c(=O)c2cnc(Nc3ccc4c(ccn4C)c3)nc2n1-c1cccc(OC2CCNCC2)n1 [Compound 236, 2-allyl-6-((1-methyl-1H-indol-5-yl)amino)-1-(6-(piperidin-4-yloxy)pyridin-2-yl)-1,2-dihydro-3H-pyrazolo[3,4-d]pyrimidin-3-one]	< 10	20 to 100	< 100	≤ 100	200 to 500	≤ 100

Second part, led by results:

IC50 [1] [nM]	IC50 [2] [nM]	EC50 [3] [nM]	EC50 (ACHN cells) [nM]	EC50 [4] [nM]	Compound	EC50 (DAOY cells) [nM]
< 10	20 to 100	< 100	≤ 100	500 to 1000	C=CCn1c(=O)c2cnc(Nc3ccc(F)cc3)nc2n1-c1cccc(OC2CCN(C)CC2)n1 [Compound 207, 6-[(4-fluorophenyl)amino]-1-{6-[(1-methylpiperidin-4-yl)oxy]pyridin-2-yl}-2-(prop-2-en-1-yl)-1H,2H,3H-pyrazolo[3,4-d]pyrimidin-3-one]	≤ 100
< 10	< 20	< 100	≤ 100	200 to 500	C=CCn1c(=O)c2cnc(Nc3cccc(C)c3)nc2n1-c1cccc(OC2CCN(C)CC2)n1 [Compound 191, 2-allyl-1-[6-(1-methyl-4-piperidyloxy)-2-pyridyl]-6-m-toluidino-1,2-dihydro-3H-1,2,5,7-tetraazainden-3-one]	≤ 100
< 10	20 to 100	< 100	≤ 100	200 to 500	C=CCn1c(=O)c2cnc(Nc3cc(C)cc(F)c3)nc2n1-c1cccc(OC2CCN(C)CC2)n1 [Compound 205, 6-[(3-fluoro-5-methylphenyl)amino]-1-{6-[(1-methylpiperidin-4-yl)oxy]pyridin-2-yl}-2-(prop-2-en-1-yl)-1H,2H,3H-pyrazolo[3,4-d]pyrimidin-3-one]	100 to 500
< 10	20 to 100	< 100	≤ 100	200 to 500	C=CCn1c(=O)c2cnc(Nc3ccnc(C)c3)nc2n1-c1cccc(OC2CCN(C)CC2)n1 [Compound 112, 1-{6-[(1-methylpiperidin-4-yl)oxy]pyridin-2-yl}-6-[(2-methylpyridin-4-yl)amino]-2-(prop-2-en-1-yl)-1H,2H,3H-pyrazolo[3,4-d]pyrimidin-3-one]	100 to 500
< 10	20 to 100	< 100	≤ 100	500 to 1000	C=CCn1c(=O)c2cnc(Nc3ccc(C)nc3)nc2n1-c1cccc(OC2CCN(C)CC2)n1 [Compound 197, 2-allyl-1-[6-(1-methyl-4-piperidyloxy)-2-pyridyl]-6-(6-methyl-3-pyridylamino)-1,2-dihydro-3H-1,2,5,7-tetraazainden-3-one]	≤ 100
< 10	20 to 100	< 100	≤ 100	< 200	C=CCn1c(=O)c2cnc(Nc3ccc4nc(C)oc4c3)nc2n1-c1cccc(OC2CCN(C)CC2)n1 [Compound 311, 2-allyl-6-(2-methyl-1,3-benzoxazol-6-ylamino)-1-[6-(1-methyl-4-piperidyloxy)-2-pyridyl]-1,2-dihydro-3H-1,2,5,7-tetraazainden-3-one]	≤ 100
